Measurements taken from patent publication US20250171495A1, “MUTLI-TARGETED SERINE PROTEASE INHIBITORS FOR TREATMENT OF CANCER AND VIRAL INFECTION” (Washington University, priority 2023, published 2025).
Like-named read-outs stand apart in the source and are kept apart here.

Assays:
Format in all cases: biochemical
hepsin = target: T1, hepsin (Homo sapiens, UniProt P05981); assay: Fluorogenic kinetic enzyme inhibitor assay, hepsin
T1 construct: purchased R&D Systems 4776-SE-010

HGFA = target: T2, HGFA (Homo sapiens, UniProt Q04756); assay: Fluorogenic kinetic enzyme inhibitor assay, HGFA; conditions: read-out: HGFA IC50
T2 construct: purchased R&D Systems 1514-SE-010
T2 sequence (Q04756 408-655 limits assumed): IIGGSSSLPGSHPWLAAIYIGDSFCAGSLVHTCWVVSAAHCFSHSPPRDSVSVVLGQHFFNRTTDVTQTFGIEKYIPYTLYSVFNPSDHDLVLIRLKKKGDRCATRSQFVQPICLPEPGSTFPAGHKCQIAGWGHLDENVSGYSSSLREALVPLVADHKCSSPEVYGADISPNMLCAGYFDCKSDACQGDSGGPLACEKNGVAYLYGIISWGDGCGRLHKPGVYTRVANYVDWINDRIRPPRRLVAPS
T2 sequence (Q04756 373-407 partner limits assumed): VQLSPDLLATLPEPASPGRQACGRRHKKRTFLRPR

matriptase = target: T3, matriptase (Homo sapiens, UniProt Q9Y5Y6); assay: Fluorogenic kinetic enzyme inhibitor assay, matriptase
T3 construct: purchased R&D Systems 3946-SEB-010
T3 sequence (Q9Y5Y6 615-855 limits assumed): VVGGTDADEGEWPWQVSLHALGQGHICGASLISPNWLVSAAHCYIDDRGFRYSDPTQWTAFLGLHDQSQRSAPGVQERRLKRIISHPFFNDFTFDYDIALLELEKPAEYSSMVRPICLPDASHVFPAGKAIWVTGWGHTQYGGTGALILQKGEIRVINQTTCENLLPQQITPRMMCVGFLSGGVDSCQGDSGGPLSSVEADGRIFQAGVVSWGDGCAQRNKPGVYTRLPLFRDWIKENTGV

TMPRSS2 = TMPRSS2 (Homo sapiens, UniProt O15393); assay: Fluorogenic kinetic enzyme inhibitor assay, TMPRSS2; set-up: purchased Cusabio Technology CSB-YP023924HU
Chain of TMPRSS2 (O15393 106-492 limits assumed): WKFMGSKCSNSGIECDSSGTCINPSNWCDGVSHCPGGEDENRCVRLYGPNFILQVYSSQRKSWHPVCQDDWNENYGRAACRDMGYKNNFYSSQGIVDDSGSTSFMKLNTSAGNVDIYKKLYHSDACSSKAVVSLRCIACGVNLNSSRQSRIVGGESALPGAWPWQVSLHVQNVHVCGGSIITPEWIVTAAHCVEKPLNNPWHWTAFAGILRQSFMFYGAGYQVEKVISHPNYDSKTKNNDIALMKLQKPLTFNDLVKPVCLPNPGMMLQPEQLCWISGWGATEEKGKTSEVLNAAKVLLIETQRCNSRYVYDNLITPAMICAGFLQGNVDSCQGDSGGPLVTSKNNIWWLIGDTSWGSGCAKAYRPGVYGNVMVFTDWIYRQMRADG

T1 sequence (P05981 163-417 limits assumed): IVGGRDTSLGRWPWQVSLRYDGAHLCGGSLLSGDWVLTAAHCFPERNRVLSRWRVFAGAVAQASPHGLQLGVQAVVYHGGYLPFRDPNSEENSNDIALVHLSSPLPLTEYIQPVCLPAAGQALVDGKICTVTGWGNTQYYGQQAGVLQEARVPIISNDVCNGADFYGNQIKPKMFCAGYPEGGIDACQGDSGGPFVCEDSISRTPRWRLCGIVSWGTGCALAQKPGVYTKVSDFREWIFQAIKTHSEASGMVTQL
T1 sequence (P05981 1-162 partner limits assumed): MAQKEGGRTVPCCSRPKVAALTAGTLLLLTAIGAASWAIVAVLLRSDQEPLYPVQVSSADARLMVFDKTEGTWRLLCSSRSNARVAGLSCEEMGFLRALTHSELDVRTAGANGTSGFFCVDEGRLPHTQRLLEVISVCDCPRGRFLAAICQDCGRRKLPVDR

| Compound | IC50 (hepsin; 30 min incubation, Boc-QAR-AMC at Km, read-out: Hepsin IC50) [nM] | IC50 (HGFA) [nM] | IC50 (hepsin; read-out: Hepsin IC50) [nM] | IC50 (matriptase; read-out: Matriptase IC50) [nM] | IC50 (hepsin) [nM] | IC50 (matriptase) [nM] | IC50 (TMPRSS2) [nM] | IC50 (TMPRSS2; read-out: TMPRSS2 IC50) [nM] |
| --- | --- | --- | --- | --- | --- | --- | --- | --- |
| CC(=O)N[C@H]1Cc2ccc(cc2)OCCCC[C@@H](C(=O)N[C@@H](CCCNC(=N)N)C(=O)c2nc3ccccc3s2)NC(=O)[C@@H](Cc2c[nH]c3ccccc23)NC1=O [8b] | 0.54 | 3.3 |  |  |  |  |  |  |
| CC(=O)N[C@@H](Cc1cncn1COCc1ccccc1)C(=O)N[C@@H](CCC(C)C)C(=O)N[C@@H](CCCNC(=N)N)C(=O)c1nc2ccccc2s1 [JH1142-2, N-[(S)-1-[(1,3-benzothiazol-2-yl)carbonyl]-4-guanidinobutyl](S)-2-[(S)-2-acetylamino-3-{1-[(benzyloxy)methyl]-5-imidazolyl}propionylamino]-5-methylhexanamide] |  | 131 | 0.93 | 1.16 |  |  |  |  |
| C=CCOC(=O)CC[C@H](NC(=O)[C@H](CCC(C)C)NC(C)=O)C(=O)N[C@@H](Cc1ccc(F)cc1)C(=O)N[C@@H](CCCNC(=N)N)C(=O)c1nc2ccccc2s1 [MF1140, allyl (S)-4-[(S)-1-acetylamino-4-methylpentylcarbonylamino]-4-[N-(S)-2-(p-fluorophenyl)-1-[N-(S)-1-[(1,3-benzothiazol-2-yl)carbonyl]-4-guanidinobutylcarbamoyl]ethylcarbamoyl]butyrate] |  |  |  |  | 11 | 2.89 | 0.001 |  |
| N=C(N)NCCC[C@H](NC(=O)[C@H](Cc1cccc(F)c1)NC(=O)OCC1c2ccccc2-c2ccccc21)C(=O)c1nc2ccccc2s1 [MF1141, (S)-2-(m-fluorophenyl)-1-[N-(S)-1-[(1,3-benzothiazol-2-yl)carbonyl]-4-guanidinobutylcarbamoyl] ethyl (9H-fluoren-9-yl)methanecarbamate] |  |  | 346 | 1140 |  |  |  | 12.8 |
| N=C(N)NCCC[C@H](NC(=O)[C@H](CC1CCCCC1)NC(=O)OCC1c2ccccc2-c2ccccc21)C(=O)c1nc2ccccc2s1 [MF1142, (S)-2-cyclohexyl-1-[N-(S)-1-[(1,3-benzothiazol-2-yl)carbonyl]-4-guanidinobutylcarbamoyl] ethyl (9H-fluoren-9-yl)methanecarbamate] |  |  | 2390 | 2810 |  |  |  | 0.04 |
| N=C(N)NCCC[C@H](NC(=O)[C@H](Cc1cccc2ccccc12)NC(=O)OCC1c2ccccc2-c2ccccc21)C(=O)c1nc2ccccc2s1 [MF1144, (S)-2-(1-naphthyl)-1-[N-(S)-1-[(1,3-benzothiazol-2-yl)carbonyl]-4-guanidinobutylcarbamoyl] ethyl (9H-fluoren-9-yl)methanecarbamate] |  |  | 1410 | > 20000 |  |  |  | > 20000 |
| N=C(N)NCCC[C@H](NC(=O)[C@H](CCC1CCCCC1)NC(=O)OCC1c2ccccc2-c2ccccc21)C(=O)c1nc2ccccc2s1 [MF1149, (S)-3-cyclohexyl-1-[N-(S)-1-[(1,3-benzothiazol-2-yl)carbonyl]-4-guanidinobutylcarbamoyl] propyl (9H-fluoren-9-yl)methanecarbamate] |  |  | 2310 | 18 |  |  |  | > 20000 |
| CCC[C@H](NC(=O)OCC1c2ccccc2-c2ccccc21)C(=O)N[C@@H](CCCNC(=N)N)C(=O)c1nc2ccccc2s1 [MF1150, (S)-1-[N-(S)-1-[(1,3-benzothiazol-2-yl)carbonyl]-4-guanidinobutylcarbamoyl] butyl (9H-fluoren-9-yl)methanecarbamate] |  |  | 29.5 | 5.44 |  |  |  | 19.3 |
| N=C(N)NCCC[C@H](NC(=O)[C@H](CCc1ccccc1)NC(=O)OCC1c2ccccc2-c2ccccc21)C(=O)c1nc2ccccc2s1 [MF1152, (S)-1-[N-(S)-1-[(1,3-benzothiazol-2-yl)carbonyl]-4-guanidinobutylcarbamoyl]-3-phenylpropyl (9H-fluoren-9-yl)methanecarbamate] |  |  | > 20000 | 47.4 |  |  |  | 200 |
| N=C(N)NCCC[C@H](NC(=O)[C@H](Cc1cn(Cc2ccccc2)cn1)NC(=O)OCC1c2ccccc2-c2ccccc21)C(=O)c1nc2ccccc2s1 [MF1158, (S)-2-(1-benzyl-4-imidazolyl)-1-[N-(S)-1-[(1,3-benzothiazol-2-yl)carbonyl]-4-guanidinobutylcarbamoyl] ethyl (9H-fluoren-9-yl)methanecarbamate] |  |  | > 20000 | 39.9 |  |  |  | 68.7 |
| N=C(N)NCCC[C@H](NC(=O)[C@H](CCCCOCc1ccccc1)NC(=O)OCC1c2ccccc2-c2ccccc21)C(=O)c1nc2ccccc2s1 [MF1165, (S)-5-(benzyloxy)-1-[N-(S)-1-[(1,3-benzothiazol-2-yl)carbonyl]-4-guanidinobutylcarbamoyl] pentyl (9H-fluoren-9-yl)methanecarbamate] |  |  | 0.1 | 31.1 |  |  |  | 0.864 |
| N=C(N)NCCC[C@H](NC(=O)[C@H](Cc1csc2ccccc12)NC(=O)OCc1ccccc1)C(=O)c1nc2ccccc2s1 [MF1168, (S)-2-(1-benzothiophen-3-yl)-1-[N-(S)-1-[(1,3-benzothiazol-2-yl)carbonyl]-4-guanidinobutylcarbamoyl] ethyl-phenylmethanecarbamate] |  |  | > 20000 | > 20000 |  |  |  | 0.264 |
| N=C(N)NCCC[C@H](NC(=O)[C@H](CCC(=O)OCc1ccccc1)NC(=O)OCc1ccccc1)C(=O)c1nc2ccccc2s1 [MF1169, benzyl (S)-4-[benzyl(oxycarbonylamino)]-4-[N-(S)-1-[(1,3-benzothiazol-2-yl)carbonyl]-4-guanidinobutylcarbamoyl] butyrate] |  |  | > 20000 | 290 |  |  |  | 75 |
| N=C(N)NCCC[C@H](NC(=O)[C@@H](NC(=O)OCc1ccccc1)c1cccs1)C(=O)c1nc2ccccc2s1 [MF1177, (R)-[N-(S)-1-[(1,3-benzothiazol-2-yl)carbonyl]-4-guanidinobutylcarbamoyl] (2-thienyl)methyl-phenylmethanecarbamate] |  |  | 6.07 | 37.6 |  |  |  | 0.211 |
| N=C(N)NCCC[C@H](NC(=O)[C@H](Cc1cccs1)NC(=O)OCC1c2ccccc2-c2ccccc21)C(=O)c1nc2ccccc2s1 [MF1184, (S)-1-[N-(S)-1-[(1,3-benzothiazol-2-yl)carbonyl]-4-guanidinobutylcarbamoyl]-2-(2-thienyl)ethyl (9H-fluoren-9-yl)methanecarbamate] |  |  | 118 | 58.7 |  |  |  | 0.466 |
| CC(=O)N[C@@H](CO)C(=O)NCc1cccc(CC(=O)N[C@@H](CC(C)C)C(=O)N[C@H](CCCNC(=N)N)C(=O)c2nc3ccccc3s2)c1 [MM1132-1, N-[(R)-1-[(1,3-benzothiazol-2-yl)carbonyl]-4-guanidinobutyl](S)-2-{[(m-{[(S)-2-acetylamino-3-hydroxypropionylamino]methyl}phenyl)methyl]carbonylamino}-4-methylvaleramide] |  | 3250 | 1.91 | 419 |  |  |  |  |
| CC(=O)N1CCC[C@H]1C(=O)N[C@@H](CO)C(=O)N[C@@H](CCCCN)C(=O)N[C@H](CCCNC(=N)N)C(=O)c1nc2ccccc2s1 [MM3194C, N-[(S)-2-hydroxy-1-[N-(S)-5-amino-1-[N-(R)-1-[(1,3-benzothiazol-2-yl)carbonyl]-4-guanidinobutylcarbamoyl]pentylcarbamoy1]ethyl]-(S)-1-acetyl-2-pyrrolidinecarboxamide] |  | > 20000 | 24.9 |  |  | 5.72 |  |  |
| CCC(C)[C@H](NC(C)=O)C(=O)N[C@@H](CCSC)C(=O)N[C@@H](Cc1ccccc1)C(=O)N[C@H](CCCNC(=N)N)C(=O)c1nc2ccccc2s1 (stereo partly drawn) [MM4027-1, N-[(S)-3-(methylthio)-1-[N-(S)-1-[N-(R)-1-[(1,3-benzothiazol-2-yl)carbonyl]-4-guanidinobutylcarbamoyl]-2-phenylethylcarbamoyl]propyl](2S)-2-acetylamino-3-methylvaleramide] |  | 234 |  |  |  |  |  | 5.63 |
| CCC(C)[C@H](NC(C)=O)C(=O)N[C@@H](CCSC)C(=O)N[C@@H](Cc1ccccc1)C(=O)N[C@@H](CCCNC(=N)N)C(=O)c1nc2ccccc2s1 (stereo partly drawn) [MM4027-2, N-[(S)-3-(methylthio)-1-[N-(S)-1-[N-(S)-1-[(1,3-benzothiazol-2-yl)carbonyl]-4-guanidinobutylcarbamoyl]-2-phenylethylcarbamoyl]propyl](2S)-2-acetylamino-3-methylvaleramide] |  |  | 1.31 |  |  | 0.51 |  | 2.96 |
| CCC(C)[C@H](NC(C)=O)C(=O)N[C@H](Cc1cc2ccccc2[nH]1)C(=O)N[C@@H](Cc1ccccc1)C(=O)N[C@@H](CCCNC(=N)N)C(=O)c1nc2ccccc2s1 (stereo partly drawn) [MM4038, N-[(R)-2-(2-indolyl)-1-[N-(S)-1-[N-(S)-1-[(1,3-benzothiazol-2-yl)carbonyl]-4-guanidinobutylcarbamoyl]-2-phenylethylcarbamoy1]ethyl](2S)-2-acetylamino-3-methylvaleramide] |  | 66.2 | 12.2 |  |  |  |  | 0.04 |
| N=C(N)NCCC[C@H](NC(=O)[C@H](Cc1ccccc1)NC(=O)[C@H](CCC(N)=O)NC(=O)OCc1ccccc1)C(=O)c1nc2ccccc2s1 [ZFH9141] |  |  | 1.25 | 1.02 |  |  |  | 0.418 |
